Test results reported in ChEMBL document CHEMBL1159195, “Purine and nucleoside metabolites from the Antarctic sponge Isodictya erinacea” (1998).
Converted amounts (≈) assume the structure as drawn. The source made the active and inactive calls. The rule behind the calls is not given here.

Experiments:
Perknaster fuscus = assay: Deterrent activity against Perknaster fuscus assessed as induction of sustained retractions of tube-feet by sea-star deterrent assay; format: functional, organism-based
[1] = test system: Staphylococcus epidermidis; assay: Antimicrobial activity against Staphylococcus epidermidis at 120 ug/disk after 48 hrs by paper disk method; format: functional, organism-based
L5178Y = assay: Cytotoxicity against mouse L5178Y cells by trypan blue exclusion method; format: functional; conditions: read-out: LD50 (the source's name)
Escherichia coli = assay: Antimicrobial activity against […] coli at 120 ug/disk after 48 hrs by paper disk method; format: functional, organism-based
Staphylococcus aureus = assay: Antimicrobial activity against Staphylococcus aureus at 120 ug/disk after 48 hrs by paper disk method; format: functional, organism-based

Row | Compound | Activity (Perknaster fuscus) | also measured
1 | O=c1ccn([C@@H]2O[C@H](CO)[C@@H](O)[C@H]2O)c(=O)[nH]1 | inactive | –
2 | Cn1c(N)nc2c(ncn2C)c1=O | inactive | –
3 | O=c1[nH]cnc2c1ncn2[C@@H]1O[C@H](CO)[C@@H](O)[C@H]1O | inactive | –
4 | Cn1cnc2ncnc(N)c21 | inactive | –
5 | Nc1ccn([C@H]2C[C@H](O)[C@@H](CO)O2)c(=O)n1 | inactive | –
6 | O=Cc1ccc(O)cc1 | Active | –
7 | O=C(O)CCNc1ncnc2[nH]c(=O)[nH]c12 [ERINACEAN] | inactive | Activity [1]: Active; CC50 (L5178Y): 50 µg/mL (≈ 224 µM); Activity (Escherichia coli): Active; Activity (Staphylococcus aureus): Active
